The results in this text go back to patent US20230089247A1, “NOVEL COMPOUNDS SUITABLE FOR THE TREATMENT OF DYSLIPIDEMIA” (ZYDUS LIFESCIENCES LIMITED, priority 2019, published 2023).

The test concerns the target PCSK9 (Homo sapiens, UniProt Q8NBP7). The test can be described thus: BODIPY-LDL uptake assay in HepG2 cells. The test is classed as cell-based. The settings on record: 5 μg/ml PCSK9, BODIPY-LDL. The procedure: BODIPY-LDL Uptake Assay in HepG2 Cells.
An established assay for PCSK9 inhibition features uptake of fluorescently labeled LDL nanoparticles (BODIPY-LDL) by hepatocytes and uptake of the BODIPY-containing particles is maximized in the absence of PCSK9.
In the LDL uptake assay, HepG2 cells were seeded at a density of 6×10^4 cells/well in a 96-well plate. After 24 h, the test compounds at various concentrations were pre-incubated with 5 μg/ml PCSK9 in 0.2% DMSO for 60 min prior to the addition on to the cells. After 16 h the medium was removed and 1 μg/ml BODIPY-LDL (Invitrogen) in serum free media was added and incubated for 5 h. Then the cells were washed twice with 0.25% BSA in PBS. Then the fluorescence of the cells in PBS was measured using TECAN multimode reader (Excitation: 485 nm and Emission: 520 nm). The readings were taken in triplicate and the final values were normalized with the protein concentration from respective wells. The wells without test compound containing external PCSK9 is considered as zero uptake and the one without PCSK9 was considered as 100% uptake. The percentage increase in LDL uptake for the test compounds were calculated using these values.

Sequence of PCSK9 (Q8NBP7 153-692): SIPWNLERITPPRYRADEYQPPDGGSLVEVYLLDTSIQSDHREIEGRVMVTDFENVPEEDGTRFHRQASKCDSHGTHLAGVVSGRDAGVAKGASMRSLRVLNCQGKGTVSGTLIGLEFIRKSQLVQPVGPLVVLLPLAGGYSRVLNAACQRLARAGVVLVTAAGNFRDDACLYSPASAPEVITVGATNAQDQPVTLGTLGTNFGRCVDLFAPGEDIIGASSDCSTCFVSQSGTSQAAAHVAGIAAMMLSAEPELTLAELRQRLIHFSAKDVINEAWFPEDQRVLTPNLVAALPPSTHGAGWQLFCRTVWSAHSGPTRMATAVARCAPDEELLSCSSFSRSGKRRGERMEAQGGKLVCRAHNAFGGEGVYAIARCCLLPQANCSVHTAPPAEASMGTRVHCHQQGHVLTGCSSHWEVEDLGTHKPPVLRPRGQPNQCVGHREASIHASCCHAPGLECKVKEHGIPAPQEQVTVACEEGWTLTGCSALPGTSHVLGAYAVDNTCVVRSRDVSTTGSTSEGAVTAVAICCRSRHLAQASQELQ

Take `O=C(c1cncc(C2(O)COC2)c1)N1CCC(c2ccc(C(F)(F)F)cc2)CC1` [Example 49, (5-(3-hydroxyoxetan-3-yl)pyridin-3-yl)(4-(4-(trifluoromethyl)phenyl)piperidin-1-yl)methanone]: the “% increase in LDL Uptake” value (1 μM test compound) is recorded as 11%, the “% increase in LDL Uptake” value (10 μM test compound) is given as 45% and the “% increase in LDL Uptake” value (30 μM test compound) was 74%.

With `COC1(c2cccc(C(=O)N3CCCC(c4ccc(C(F)(F)F)cc4)C3)c2)COC1` (stereo not drawn) [Example 51, (3-(3-methoxyoxetan-3-yl)phenyl)(3-(4-(trifluoromethyl)phenyl)piperidin-1-yl)methanone], the “% increase in LDL Uptake” value is 11% (1 μM test compound), 79% (10 μM test compound) and 131% (30 μM test compound).

Consider `O=C(c1cccc(C2(O)COC2)c1)N1CC2CN(c3ccc(C(F)(F)F)cc3)CC2C1` (stereo not drawn) [Example 55, (3-(3-hydroxyoxetan-3-yl)phenyl)(5-(4-(trifluoromethyl)phenyl)hexahydropyrrolo[3,4-c]pyrrol-2(1H)-yl)methanone], for which the “% increase in LDL Uptake” value is, setting by setting: (1 μM test compound) 82%; (10 μM test compound) 320%; (30 μM test compound) 287%.

`[2H]C([2H])([2H])OC1(c2cccc(C(=O)N3CCC(c4ccc(C(F)F)cc4)CC3)c2)COC1` [Example 59, (4-(4-(difluoromethyl)phenyl)piperidin-1-yl)(3-(3-(methoxy-d3)oxetan-3-yl)phenyl) methanone]: the “% increase in LDL Uptake” value runs as follows: (1 μM test compound) 0%; (10 μM test compound) 0%; (30 μM test compound) 37%.

As to `COC1(c2ccc(NC(=O)C3CCN(c4ccc(C(F)(F)F)cc4)CC3)cc2)COC1` [Example 60, N-(4-(3-methoxyoxetan-3-yl)phenyl)-1-(4-(trifluoromethyl)phenyl) piperidine-4-carboxamide], the “% increase in LDL Uptake” value reads like this: (1 μM test compound) 50%; (10 μM test compound) 7%; (30 μM test compound) 0%.

Take `O=C(c1ccc(C2(O)CS(=O)(=O)C2)cc1)N1CC2CN(c3ccc(C(F)(F)F)cc3)CC2C1` (stereo not drawn) [Example 61, (4-(3-hydroxy-1,1-dioxidothietan-3-yl)phenyl)(5-(4-(trifluoromethyl)phenyl)hexahydropyrrolo[3,4-c]pyrrol-2(1H)-yl)methanone]: the “% increase in LDL Uptake” value was found to be 13% (1 μM test compound), 32% (10 μM test compound) and 37% (30 μM test compound).

For `O=C(c1ccc(C2(O)CS(=O)(=O)C2)cc1)N1CCC(c2ccc(C(F)(F)F)cc2)CC1` [Example 62, (4-(3-hydroxy-1,1-dioxidothietan-3-yl)phenyl)(4-(4-(trifluoromethyl)phenyl)piperidin-1-yl)methanone], the “% increase in LDL Uptake” value runs as follows: (1 μM test compound) 18%; (10 μM test compound) 10%; (30 μM test compound) 17%.

As for `O=C(c1ccc(C2(O)COC2)cc1)N1CCC(c2ccc(O)cc2)CC1` [Example 63, (4-(3-hydroxyoxetan-3-yl)phenyl)(4-(4-hydroxyphenyl)piperidin-1-yl)methanone], the “% increase in LDL Uptake” value by setting is: (1 μM test compound) 12%; (10 μM test compound) 18%; (30 μM test compound) 0%.

On to `O=C(c1ccc(C2(O)COC2)cc1)N1CCC(c2ccccc2)CC1` [Example 64, (4-(3-hydroxyoxetan-3-yl)phenyl)(4-phenylpiperidin-1-yl) methanone], for which the “% increase in LDL Uptake” value runs as follows: (1 μM test compound) 0%; (10 μM test compound) 13%; (30 μM test compound) 6%.

On to `COC1(c2cccc(C(=O)N3CCC(c4ccc(C(F)F)cc4)CC3)c2)COC1` [Example 65, (4-(4-(difluoromethyl)phenyl)piperidin-1-yl)(3-(3-methoxyoxetan-3-yl)phenyl)methanone], for which the “% increase in LDL Uptake” value amounted to 0% (1 μM test compound), 9% (10 μM test compound) and 66% (30 μM test compound).

As to `COc1cc(C2CN(c3ccc(C(F)(F)F)cc3)CCN2C(=O)c2ccc(C3(O)COC3)cc2)ccn1` (stereo not drawn) [Example 67, (4-(3-hydroxyoxetan-3-yl)phenyl)(2-(2-methoxypyridin-4-yl)-4-(4-(trifluoromethyl)phenyl)piperazin-1-yl)methanone], the “% increase in LDL Uptake” value by setting is: (1 μM test compound) 26%; (10 μM test compound) 27%; (30 μM test compound) 11%.

Turning to `COC1(c2ccc(C(=O)N3CCC(c4ccc(C(F)F)cc4)CC3)cc2)COC1` [Example 68, (4-(4-(difluoromethyl)phenyl)piperidin-1-yl)(4-(3-methoxyoxetan-3-yl)phenyl)methanone], the “% increase in LDL Uptake” value came to 0% (1 μM test compound), 2% (10 μM test compound) and 51% (30 μM test compound).

Take `O=C(c1ccc(C2(O)COC2)cc1)N1CCC(c2ccc(C(F)F)cc2)CC1` [Example 69, (4-(4-(difluoromethyl)phenyl)piperidin-1-yl)(4-(3-hydroxyoxetan-3-yl)phenyl)methanone]: the “% increase in LDL Uptake” value turned out to be 0% (1 μM test compound), 0% (10 μM test compound) and 76% (30 μM test compound).

With `CC#CCOC1(c2ccc(C(=O)N3CCC(c4ccc(C(F)(F)F)cc4)CC3)cc2)COC1` [Example 70, (4-(3-(but-2-yn-1-yloxy)oxetan-3-yl)phenyl)(4-(4-(trifluoromethyl)phenyl)piperidin-1-yl)methanone], the “% increase in LDL Uptake” value (1 μM test compound) is 0%, the “% increase in LDL Uptake” value (10 μM test compound) is 26% and the “% increase in LDL Uptake” value (30 μM test compound) was 14%.

As for `COC1(c2ccc(C3(O)CCN(c4ccc(C(F)(F)F)cc4)CC3)cc2)COC1` [Example 73, 4-(4-(3-methoxyoxetan-3-yl)phenyl)-1-(4-(trifluoromethyl)phenyl) piperidin-4-ol], the “% increase in LDL Uptake” value by setting is: (1 μM test compound) 0%; (10 μM test compound) 8%; (30 μM test compound) 0%.

With `COC1(c2ccc(NC(=O)N3CC4CN(c5ccc(C(F)(F)F)cc5)CC4C3)cc2)COC1` (stereo not drawn) [Example 74, N-(4-(3-methoxyoxetan-3-yl)phenyl)-5-(4-(trifluoromethyl)phenyl) hexahydropyrrolo[3,4-c]pyrrole-2(1H)-carboxamide], the “% increase in LDL Uptake” value is 34% (1 μM test compound), 42% (10 μM test compound) and 100% (30 μM test compound).

As for `O=C(Nc1ccc(C2(O)COC2)cc1)N1CC2CN(c3ccc(C(F)(F)F)cc3)CC2C1` (stereo not drawn) [Example 75, N-(4-(3-hydroxyoxetan-3-yl)phenyl)-5-(4-(trifluoromethyl)phenyl) hexahydropyrrolo[3,4-c]pyrrole-2(1H)-carboxamide], the “% increase in LDL Uptake” value is, setting by setting: (1 μM test compound) 20%; (10 μM test compound) 38%; (30 μM test compound) 27%.

In the case of `O=C(O)c1cc(C2(O)COC2)ccc1N1CCC(c2ccc(C(F)(F)F)cc2)CC1` [Example 77, 5-(3-hydroxyoxetan-3-yl)-2-(4-(4-(trifluoromethyl)phenyl)piperidin-1-yl)benzoic acid], the “% increase in LDL Uptake” value by setting is: (1 μM test compound) 0%; (10 μM test compound) 13%; (30 μM test compound) 37%.

`OC1(c2cc(N3CCOCC3)cc(N3CCC(c4ccc(C(F)(F)F)cc4)CC3)c2)COC1` [Example 84, 3-(3-morpholino-5-(4-(4-(trifluoromethyl)phenyl)piperidin-1-yl)phenyl) oxetan-3-ol]: the “% increase in LDL Uptake” value by setting is: (1 μM test compound) 6%; (10 μM test compound) 13%; (30 μM test compound) 17%.

As for `O=C(c1ccc(C2(O)COC2)cc1)N1Cc2cn(-c3ccc(C(F)(F)F)cc3)nc2C1` [Example 89, (4-(3-hydroxyoxetan-3-yl)phenyl)(2-(4-(trifluoromethyl)phenyl)-2,6-dihydropyrrolo[3,4-c]pyrazol-5(4H)-yl)methanone], the “% increase in LDL Uptake” value is 0% (1 μM test compound), 5% (10 μM test compound) and 159% (30 μM test compound).

In the case of `COC1(c2ccc(C(=O)N3CC4CC(OC)(c5ccc(C(F)(F)F)cc5)CC4C3)cc2)COC1` (stereo not drawn) [Example 92, (5-methoxy-5-(4-(trifluoromethyl)phenyl)hexahydrocyclopenta[c]pyrrol-2(1H)-yl)(4-(3-methoxyoxetan-3-yl)phenyl)methanone], the “% increase in LDL Uptake” value (1 μM test compound) is −2%, the “% increase in LDL Uptake” value (10 μM test compound) is given as −8% and the “% increase in LDL Uptake” value (30 μM test compound) worked out at 64%.

With `O=C(c1ccc(C2(O)COC2)cc1)N1Cc2cn(-c3ccc(C(F)(F)F)cc3)cc2C1` [Example 93, (4-(3-hydroxyoxetan-3-yl)phenyl)(5-(4-(trifluoromethyl)phenyl)-3,5-dihydropyrrolo[3,4-c]pyrrol-2(1H)-yl)methanone], the “% increase in LDL Uptake” value (1 μM test compound) is 0%, the “% increase in LDL Uptake” value (10 μM test compound) turned out to be 90% and the “% increase in LDL Uptake” value (30 μM test compound) is 144%.

As to `O=C(c1cccc(C2(O)COC2)c1)N1CC2=C(C1)CN(c1ccc(C(F)(F)F)cc1)C2` [Example 96, (3-(3-hydroxyoxetan-3-yl)phenyl)(5-(4-(trifluoromethyl)phenyl)-3,4,5,6-tetrahydropyrrolo[3,4-c]pyrrol-2(1H)-yl)methanone], the “% increase in LDL Uptake” value amounted to 0% (1 μM test compound), 28% (10 μM test compound) and 75% (30 μM test compound).
